What was measured:
E. coli ATCC 25922 [1] = experiment: Minimum inhibitory concentration, ampicillin sensitive strains; assay type: cell-based, Escherichia coli; conditions: Escherichia coli, ATCC25922; E. coli ATCC 25922, Gram-negative, ampicillin sensitive; read-out: Minimum inhibitory concentrations
Protocol: (§1) Each one of the 24 combinations of the ionic liquids were tested with following 9 bacteria: • Escherichia coli ATCC25922 • Staphylococcus aureus ATCC25923 • Klebsiella pneumonia • Staphylococcus epidermidis • Enterococcus fecalis • E. coli Tem CTXM9 • E. coli CTXM2 • E. coli AmpCMox2 • Saccharomyces cerevisiae PYCC 4072
(§2) These bacteria were tested in Vitek2 systems from bioMérieux. Bacteria were grown on Trypticase soy agar for 24 hours at 37° C. prior to each test. The bacteria assays were made in Tryptic Soy Broth.

K. pneumoniae = experiment: as above; assay type: cell-based, Klebsiella pneumonia; conditions: K. pneumoniae, Gram-negative, ampicillin sensitive
Protocol: as §1, §2

E. fecalis [2] = experiment: as above; assay type: cell-based, Enterococcus fecalis; conditions: Enterococcus; E. fecalis, Gram-positive, ampicillin sensitive; read-out: Minimum inhibitory concentrations
Protocol: as §1, §2

S. epidermis [3] = experiment: as above; assay type: cell-based, Staphylococcus epidermidis; conditions: Staphylococcus epidermidis; S. epidermis, Gram-positive, ampicillin sensitive; read-out: Minimum inhibitory concentrations
Protocol: as §1, §2

E. coli CTX M2 = experiment: Minimum inhibitory concentration, ampicillin resistant strains; assay type: cell-based; conditions: Escherichia coli, CTXM2; E. coli CTX M2, ampicillin resistant; read-out: Minimum inhibitory concentrations
Protocol: as §1, §2

E. coli TEM CTX M9 [4] = experiment: as above; assay type: cell-based; conditions: Escherichia coli; E. coli TEM CTX M9, ampicillin resistant; read-out: Minimum inhibitory concentrations
Protocol: as §1, §2

E. coli ATCC 25922 [5] = experiment: Growing rates in presence and absence of compound; assay type: cell-based, Escherichia coli; conditions: E. coli ATCC 25922, conc. tested 0.5 mM
Protocol: as §2

S. aureus ATCC 25923 = experiment: Growing rates in presence and absence of compound; assay type: cell-based, Staphylococcus aureus; conditions: S. aureus ATCC 25923, conc. tested 0.0005 mM
Protocol: as §2

K. pneumonia = experiment: Growing rates in presence and absence of compound; assay type: cell-based, Klebsiella pneumonia; conditions: conc. tested 0.5 mM
Protocol: as §2

E. fecalis [6] = experiment: Growing rates in presence and absence of compound; assay type: cell-based, Enterococcus fecalis; conditions: conc. tested 0.005 mM
Protocol: as §2

S. epidermis [7] = experiment: Growing rates in presence and absence of compound; assay type: cell-based, Staphylococcus epidermidis; conditions: conc. tested 0.005 mM
Protocol: as §2

E. coli AmpC MOX2 = experiment: Growing rates in presence and absence of compound; assay type: cell-based; conditions: E. coli AmpC Mox2, conc. tested 0.05 mM
Protocol: as §2

E. coli TEM CTX M9 [8] = experiment: Growing rates in presence and absence of compound; assay type: cell-based; conditions: E. coli TEM CTX M9, conc. tested 0.05 mM
Protocol: as §2

SF (skin fibroblasts) = experiment: MTT cellular viability/proliferation, primary human cells; assay type: cell-based; conditions: Homo sapiens, Skin fibroblast, MTT assay
Protocol: (§3) At about 70-80% confluence, cells were enzymatically detached with 0.05% trypsin and 0.5 mM EDTA and seeded at 10^4 cells cm^−2.
(§4) After an attachment period of 24 hours, the culture medium was renewed, and supplemented with different concentrations (0.005-500 mM) of the ampicillin derived ionic liquid. Cell cultures were maintained in a 5% CO2 humidified atmosphere at 37° C.
(§5) Cellular viability/proliferation was assessed by the MTT assay at days 1, 3 and 5 of the culture. This assay is based on the reduction of 3-(4,5-dimethylthiazol-2-yl)-2,5-diphenyltetrazolium bromide (MTT) to a purple formazan product by viable cells.
(§6) Shortly, cultured cells were incubated at 37° C. with 0.5 mg ml −1 of MTT for 4 hours. The culture medium was then removed; the stained product dissolved with dimethylsulfoxide, and absorbance determined at 550 nm in an ELISA plate rewader. Results were expressed as absorbance per cm2.
(§7) The values of the […] (IC50) and the median lethal dose (LD50) were obtained from nonlinear regression analysis of concentration effect curves using the GGraphPad Prism Software.
(§8) It is used to measure the efficacy of a compound in inhibiting any biochemical or biological function.

[9] = tested on: gingival fibroblasts (GF); experiment: as above; assay type: cell-based; conditions: Homo sapiens, Fibroblast, MTT assay
Protocol: as §3, §4, §5, §6, §7, §8

[10] = tested on: HepG2 (hepatocellular liver carcinoma cell); experiment: MTT cellular viability/proliferation, cancer cell lines; assay type: cell-based, human; conditions: Homo sapiens; HepG2, MTT assay
Protocol: as §3, §4, §5, §6, §7, §8

[11] = tested on: MG63 (osteosarcoma cell line); experiment: as above; assay type: cell-based, human; conditions: Homo sapiens, MG-63; MG63, MTT assay
Protocol: as §3, §4, §5, §6, §7, §8

[12] = tested on: PC3 (prostate cancer cell line); experiment: as above; assay type: cell-based, human; conditions: Homo sapiens; PC3, MTT assay
Protocol: as §3, §4, §5, §6, §7, §8

[13] = tested on: RKO (colon cancer cell line); experiment: as above; assay type: cell-based, human; conditions: Homo sapiens, MTT assay
Protocol: as §3, §4, §5, §6, §7, §8

[14] = tested on: T47D (ductal breast epithelial tumour cell line); experiment: cells; assay type: cell-based; conditions: Homo sapiens; T47D, MTT assay
Protocol: as §3, §4, §5, §6, §7, §8

With CC1(C)S[C@@H]2[C@H](NC(=O)[C@H](N)c3ccccc3)C(=O)N2[C@H]1C(=O)O [[P6,6,6,14][Amp]] the MIC (E. coli ATCC 25922 [1]) was 2500 µM, the Minimum inhibitory concentrations (K. pneumoniae) was 5000 µM and the MIC (K. pneumoniae; Klebsiella pneumoniae, read-out: Minimum inhibitory concentrations) was 5000 µM. The MIC (E. fecalis [2]) was 50 µM, the MIC (S. epidermis [3]) was 50 µM and the MIC (E. coli CTX M2) was 500 µM. The MIC (E. coli TEM CTX M9 [4]) was 500 µM, the “Growing rate with compound” value (E. coli ATCC 25922 [5]) was 0.0007 ± 0.0001 min⁻¹ and the Decreasing rate (E. coli ATCC 25922 [5]; with compound vs no compound) was 0.035. The “Growing rate with compound” value (S. aureus ATCC 25923) was 0.0004 ± 0.0003 min⁻¹, the Decreasing rate (S. aureus ATCC 25923; with compound vs no compound) was 0.077 and the “Growing rate with compound” value (K. pneumonia) was 0.00045 ± 0.00007 min⁻¹. For the same molecule, the Decreasing rate (K. pneumonia; with compound vs no compound) was 0.18, the “Growing rate with compound” value (E. fecalis [6]) was 0.0009 ± 0.0004 min⁻¹ and the Decreasing rate (E. fecalis [6]; with compound vs no compound) was 0.28. For the same molecule, the “Growing rate with compound” value (S. epidermis [7]) was 0.0006 ± 0.0000 min⁻¹, the Decreasing rate (S. epidermis [7]; with compound vs no compound) was 0.13 and the “Growing rate with compound” value (E. coli AmpC MOX2) was 0.00077 ± 0.00006 min⁻¹. For the same molecule, the Decreasing rate (E. coli AmpC MOX2; with compound vs no compound) was 0.24, the “Growing rate with compound” value (E. coli TEM CTX M9 [8]) was 0.00067 ± 0.00006 min⁻¹ and the Decreasing rate (E. coli TEM CTX M9 [8]; with compound vs no compound) was 0.20. It also gave an IC50 (SF (skin fibroblasts)) of 249 nM, an IC50 [9] of 173 nM and an IC50 [10] of 322 nM. For the same molecule, the IC50 [11] was 312 nM, the IC50 [12] was 354 nM and the IC50 [13] was 180 nM. It also gave an IC50 [14] of 264 nM.

Source: US20150174145A1, “Pharmaceutical compounds with the structure of ionic salts with antibiotic and anticancer action” (priority 2013, published 2015)
